Assay results published in publication PMC6811590, “Solution structure, glycan specificity and of phenol oxidase inhibitory activity of Anopheles C-type lectins CTL4 and CTLMA2” (Scientific Reports, 2019).

Key:
CTLMA2 [1] = molecular target: T1, CTLMA2 (Anopheles gambiae, UniProt Q7Q7F8); assay: SPR steady-state affinity (Biacore T200, protein immobilised on CM5); type: binding; conditions: PBS, 1 mM CaCl2, 1 mM MgCl2
T1 construct: gene 1276042; 6xHis-tagged CTLMA2 monomer, secreted from T.ni insect cells (baculovirus, synthetic gene)
T1 sequence (Q7Q7F8 18-174): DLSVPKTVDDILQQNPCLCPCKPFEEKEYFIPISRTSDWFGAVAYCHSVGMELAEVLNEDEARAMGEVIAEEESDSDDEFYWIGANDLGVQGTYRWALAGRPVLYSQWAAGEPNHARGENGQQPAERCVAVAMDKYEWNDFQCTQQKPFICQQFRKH
Text: SPR steady-state affinity (Biacore T200, protein immobilised on CM5) on CTLMA2

CTL4/CTLMA2 [2] = molecular target: T2, CTL4/CTLMA2 (Anopheles gambiae, UniProt Q7Q7F7+Q7Q7F8); assay: as above; type: binding; conditions: PBS, 1 mM CaCl2, 1 mM MgCl2
T2 construct: gene 1276043; disulfide-bridged heterodimer, pFastbac-Dual, C-terminal 6xHis on CTL4 (178-183), secreted from T.ni cells, signal peptides removed; 35 kDa
T2 sequence (Q7Q7F7 25-177): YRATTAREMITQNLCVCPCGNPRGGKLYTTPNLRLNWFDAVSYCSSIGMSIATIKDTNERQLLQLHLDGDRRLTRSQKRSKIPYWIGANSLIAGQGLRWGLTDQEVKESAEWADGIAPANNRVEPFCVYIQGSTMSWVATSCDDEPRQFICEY
T2 sequence (Q7Q7F8 18-174): T1 sequence (Q7Q7F8 18-174)
Text: SPR steady-state affinity (Biacore T200, protein immobilised on CM5) on CTL4/CTLMA2

CTLMA2 [3] = molecular target: T1, CTLMA2; assay: glycan array, anti-His fluorescence detection; type: binding; conditions: PBS, 1 mM CaCl2, 1 mM MgCl2; glycan immobilised through spacer
Text: glycan array, anti-His fluorescence detection on CTLMA2

CTL4/CTLMA2 [4] = molecular target: T2, CTL4/CTLMA2; assay: glycan array, anti-His fluorescence detection; type: binding; conditions: PBS, 1 mM CaCl2, 1 mM MgCl2; glycan immobilised through spacer
Text: glycan array, anti-His fluorescence detection on CTL4/CTLMA2

CTL4 = molecular target: T3, CTL4 (Anopheles gambiae, UniProt Q7Q7F7); assay: SPR steady-state affinity (Biacore T200, protein immobilised on CM5); type: binding; conditions: PBS, 1 mM CaCl2, 1 mM MgCl2
T3 construct: gene 1276043; 6xHis-tagged CTL4 monomer, secreted from T.ni insect cells (baculovirus, synthetic gene)
T3 sequence (Q7Q7F7 25-177): T2 sequence (Q7Q7F7 25-177)
Text: SPR steady-state affinity (Biacore T200, protein immobilised on CM5) on CTL4

[5] = tested on: An. gambiae CTL4 (AGAP005335) with C-terminal 6xHis tag, chain of the CTL4/CTLMA2 heterodimer; assay: non-reducing SDS-PAGE; purified CTL4/CTLMA2 on non-reducing and reducing SDS-PAGE; shows the disulfide-bridged species; conditions: other: non-reducing SDS-PAGE

Question: `C[C@@H]1O[C@@H](O[C@H]2C(O)O[C@H](CO)[C@H](O)[C@@H]2O)[C@@H](O)[C@H](O)[C@@H]1O` (stereo partly drawn) [compound 479, H disaccharide] was tested. Which Kd (CTLMA2 [1]) did it give?
Answer: The Kd was 10.4 ± 3.26 µM.

Question: And the Kd (CTL4/CTLMA2 [2])?
Answer: The Kd was 26.6 ± 6.81 µM.

Question: Which CTLMA2 (CTLMA2 [3]) does the source give for “GlcNAcβ1-4Galβ1-4GlcNAcβ-sp2 [compound 251]” here?
Answer: Its CTLMA2 is 1.04 fold.

Question: For `CC(=O)N[C@H]1[C@H](O[C@H]2[C@@H](O)[C@@H](CO)O[C@@H](O[C@H]3[C@H](O)[C@@H](O)C(O)O[C@@H]3CO)[C@@H]2O)O[C@H](CO)[C@@H](O)[C@@H]1O[C@@H]1O[C@H](CO)[C@H](O)[C@H](O)[C@H]1O` (stereo partly drawn) [compound 536, LNT], which Kd (CTL4/CTLMA2 [2]) is on record?
Answer: The Kd was 8.22 ± 1.71 µM.

Question: Which CTL4/CTLMA2 (CTL4/CTLMA2 [4]) does the source give for “Neu5Acα2-3Galβ1-3GlcNAcβ1-3Galβ1-4Glcβ-sp4 [compound 536]” here?
Answer: The CTL4/CTLMA2 was 2.13 fold.

Question: `CC(=O)N[C@H]1C(O)O[C@H](CO)[C@@H](O)[C@@H]1O` (stereo partly drawn) [113,251, GlcNAc monosaccharide] was tested. Which Kd (CTL4) did it give?
Answer: Its Kd is 27.9 ± 11.4 µM.

Question: And the Kd (CTLMA2 [1])?
Answer: Its Kd is 29.7 ± 7.91 µM.

Question: And the Kd (CTL4/CTLMA2 [2])?
Answer: The Kd was 21.9 ± 2.8 µM.

Question: Which “percent of the purified product that is heterodimer” value [5] does the source give for “An. gambiae CTLMA2 (AGAP005334), chain of the CTL4/CTLMA2 heterodimer” here?
Answer: Its value is “the purified product is overwhelmingly (>95%) heterodimer”.

Question: For “Neu5Acα2-3(GalNAcβ1-4)Galβ1-4Glcβ-sp2 [compound 421]”, which CTL4/CTLMA2 (CTL4/CTLMA2 [4]) is on record?
Answer: The CTL4/CTLMA2 was 1.94 fold.

Question: How did the CTL4/CTLMA2 (CTL4/CTLMA2 [4]) turn out when `O=P(O)(O)OC[C@H]1OC(O)[C@@H](O)[C@@H](O)[C@@H]1O` (stereo partly drawn) [compound 47, 6-H2PO3Manα-sp3] was run?
Answer: The CTL4/CTLMA2 was 1.32 fold.

Question: asialo-GM1 [18B] was tested. Which Kd (CTL4) did it give?
Answer: The Kd was 15.4 ± 3.99 µM.

Question: Which Kd (CTL4) does the source give for `CC(=O)N[C@H]1C(O)O[C@H](CO)[C@@H](O[C@@H]2O[C@H](COS(=O)(=O)O)[C@H](O)[C@H](O)[C@H]2O)[C@@H]1O` (stereo partly drawn) [compound 163] here?
Answer: The Kd was 0.292 ± 0.15 µM.

Question: For `CC(=O)N[C@H]1[C@H](O[C@H]2[C@@H](O)[C@@H](CO)O[C@@H](O[C@H]3[C@H](O)[C@@H](O)C(O)O[C@@H]3CO)[C@@H]2O)O[C@H](CO)[C@@H](O[C@@H]2O[C@H](CO)[C@H](O)[C@H](O)[C@H]2O)[C@@H]1O` (stereo partly drawn) [383,488, LNnT], which Kd (CTL4/CTLMA2 [2]) is on record?
Answer: The Kd was 17.6 ± 2.99 µM.

Question: Which Kd (CTL4) does the source give for `CC(=O)N[C@H]1[C@@H](O[C@H]2[C@@H](O)[C@@H](CO)OC(O)[C@@H]2O[C@@H]2O[C@@H](C)[C@@H](O)[C@@H](O)[C@@H]2O)O[C@H](CO)[C@H](O)[C@@H]1O` (stereo partly drawn) [compound 386, A blood group trisaccharide] here?
Answer: The Kd was 49.3 ± 12.2 µM.

Question: And the Kd (CTLMA2 [1])?
Answer: Its Kd is 1.77 ± 0.19 µM.

Question: And the Kd (CTL4/CTLMA2 [2])?
Answer: Its Kd is 5.56 ± 2.9 µM.

Question: For `CC(=O)N[C@H]1[C@H]([C@H](O)[C@H](O)CO)O[C@@](O[C@H]2[C@@H](O)[C@@H](CO)O[C@@H](O[C@H]3[C@H](O[C@@H]4O[C@@H](C)[C@@H](O)[C@@H](O)[C@@H]4O)[C@@H](NC(C)=O)C(O)O[C@@H]3CO)[C@@H]2O)(C(=O)O)C[C@@H]1O` (stereo partly drawn) [compound 428, Sialyl-Lewis X], which Kd (CTLMA2 [1]) is on record?
Answer: The Kd was 0.619 ± 0.1 µM.

Question: What about the Kd (CTL4/CTLMA2 [2]) of the same molecule?
Answer: Its Kd is 3.81 ± 1 µM.

Question: What does the source list for `CC(=O)N[C@H]1C(O)O[C@H](CO)[C@@H](O[C@@H]2O[C@@H](C)[C@@H](O)[C@@H](O)[C@@H]2O)[C@@H]1O[C@@H]1O[C@H](CO)[C@H](O)[C@H](OS(=O)(=O)O)[C@H]1O` (stereo partly drawn) [compound 287, Sulfo-Lewis A]?
Answer: Kd (CTLMA2 [1]): 0.106 ± 0.06 µM; Kd (CTL4/CTLMA2 [2]): 0.095 ± 0.02 µM
